Measured values from patent publication US20060025394A1, “Estradiol-related compounds and methods of use as anti-tumor agents” (priority 2003, published 2006).

Experiments:
MCF-7 = assay: Cytotoxicity testing (Example 7), MTS, MCF-7; assay type: cell-based
Protocol: (§1) Cytotoxicity Studies were done in DU-145 and MCF-7 Cells. […] We set out to test the efficacy of these compounds based on known affinities for ER-α previously reported. Cells were treated for five days with 1 mM of each compound in a defined media. Cell number was estimated by the MTS method. Similar studies were carried out in the MCF-7 cell line known to express both ER-α and -β, and display proliferative properties in the presence of classic estrogens.

DU-145 = assay: Cytotoxicity testing (Example 7), MTS, DU-145; assay type: cell-based; settings: for DU145 % Cell#: five days, MTS
Protocol: as §1

NCR nude mice = settings: 5 to 40 mg/kg/day bolus IM injection, 40-day period
Protocol: Doses included 5 to 40 mg/kg/day bolus IM injection. Toxicity effects were gauged based on changes in animal weight and gross analysis of specific organs including liver, lung, prostate, brain, spleen, heart, and kidney, collected, and fixed in paraffin sections.

DU145 = assay: MTS cell viability assay in DU145; assay type: cell-based; settings: DU145, concentrations above 1 μM
Protocol: (§2) DU145, LNCaP, PC3, and MCF-7 cells were obtained from the American Type Culture Collection (Manassas, Va.). DU145, PC3, and MCF-7 cells were maintained in Dulbecco's modified Eagle's medium/F-12 supplemented with 5% heat inactivated Fetal Calf Serum and Penicillin/Streptomycin (Invitrogen Life Technologies, Carlsbad, Calif.). LNCaP cells were maintained in RPMI 1640 medium supplemented in the same fashion. Cells were cultured in 75 cm^2 flasks (Falcon, BD Biosciences, Bedford, Mass.) at 37° C. and 5% CO2. For the MTS assay (Example 3), five thousand cells were plated in each well of a 24 well plate (Falcon), were allowed to attach for a 48-hour period in the media described, and changed to a defined medium, (DMEM/F-12 or RPMI1640) supplemented with insulin (BD Biosciences). A 1000× solution of the compound of interest solubilized in DMSO (Sigma, Saint Louis, Mo.) was diluted in the defined media just prior to starting each experiment, and media was refreshed every 48 to 72 hours throughout the experiments.
(§3) . Upon completing five days of treatment, the medium in each well was exchanged for 400 μL of an MTS solution (3-(4,5-dimethylthiazol-2-yl)-5-(3-carboxymethoxyphenyl)-2-(4-sulfophenyl)-2H-tetrazolium, inner salt; O'Toole SA, 2003, Cancer Detect Prev., 2003;27(1):47-54) spiked into media as per the manufacture's instructions (Promega, Madison, Wis.) and incubated for 2 hours at 37° C. before reading the absorbance on the μQuant UV/VIS plate reader, in conjunction with KCjunior Software (Bio-Tek Instruments, Winooski, Vt.) set at 490 nm. All experiments were carried out in quadruplicate, control wells were treated with the carrier DMSO. E2, which is estradiol-17β (Steraloids®, Newport, R.I.) and resveratrol (Sigma) were used as controls. […]

[1] = test system: DU145, PC3, and LNCaP cell lines; assay: MTS assay, values averaged or stated over the CaP cell lines; assay type: cell-based; settings: average
Protocol: as §2, §3

[2] = Table 3, five days, 1 mM of each compound, defined media
[3] = Table 3, 1 mM of each compound, defined media
[4] = Table 4 comparative study, five days, 1 mM
[5] = Table 4 comparative study, 1 mM

| Structure (SMILES) | MCF-7 % Cell# (MCF-7; [2]) | DU145 % Cell# (DU-145; [3]) | MCF-7 % Cell# (MCF-7; [4]) | DU145 % Cell# (DU-145; [5]) | other results |
| --- | --- | --- | --- | --- | --- |
| CC12CCC3c4ccc(O)cc4CCC3C1CCC2(O)C=Cc1ccccc1 (stereo not shown) [Compound 1] | 22% | 62% | – | – | – |
| CC12CCC3c4ccc(O)cc4CCC3C1CCC2(O)C=Cc1ccccc1F (stereo not shown) [Compound 2] | 40% | 80% | – | – | – |
| Cc1ccc(C=CC2(O)CCC3C4CCc5cc(O)ccc5C4CCC32C)cc1 (stereo not shown) [Compound 3] | 23% | 33% | – | – | – |
| COC(=O)c1ccc(C=CC2(O)CCC3C4CCc5cc(O)ccc5C4CCC32C)cc1 (stereo not shown) [Compound 4] | 28% | 100% | – | – | – |
| Cc1cccc(C=CC2(O)CCC3C4CCc5cc(O)ccc5C4CCC32C)c1 (stereo not shown) [Compound 5] | 24% | 9% | – | – | overall result in cytotoxicity testing (Table 3) (DU-145): good results |
| CC12CCC3c4ccc(O)cc4CCC3C1CCC2(O)C=Cc1ccc(F)cc1 (stereo not shown) [Compound 6] | 28% | 67% | – | – | – |
| CC12CCC3c4ccc(O)cc4CCC3C1CCC2(O)C=Cc1ccc(C(=O)O)cc1 (stereo not shown) [Compound 8] | 120% | 99% | – | – | – |
| CC12CCC3c4ccc(O)cc4CCC3C1CCC2(O)C=Cc1ccc(F)cc1 (stereo not shown) [Compound 9] | 27% | 17% | – | – | overall result in cytotoxicity testing (Table 3) (DU-145): good results |
| CC12CCC3c4ccc(O)cc4CCC3C1CCC2(O)C=Cc1ccc(C#N)cc1 (stereo not shown) [Compound 10] | 23% | 92% | – | – | – |
| COc1ccc(C=CC2(O)CCC3C4CCc5cc(O)ccc5C4CCC32C)cc1 (stereo not shown) [Compound 11] | 28% | 60% | – | – | – |
| COC(=O)c1ccccc1C=CC1(O)CCC2C3CCc4cc(O)ccc4C3CCC21C (stereo not shown) [Compound 12] | 30% | 92% | – | – | – |
| C=CC1(O)CCC2C3CCc4cc(O)ccc4C3CCC21C (stereo not drawn) [Compound 13, 17α-vinyl-E2, reference compound] | 53% | 98% | – | – | – |
| COC(=O)c1ccc(C=CC2(O)CCC3C4CCc5cc(O)ccc5C4CCC32C)cc1 (stereo not shown) [Compound 15] | 32% | 92% | – | – | – |
| CC12CCC3c4ccc(O)cc4CCC3C1CCC2(O)C=Cc1ccccc1CO (stereo not shown) [Compound 16] | 55% | 105% | – | – | – |
| CC12CCC3c4ccc(O)cc4CCC3C1CCC2(O)C=Cc1ccccc1C(F)(F)F (stereo not shown) [Compound 19] | 20% | 5% | – | – | overall result in cytotoxicity testing (Table 3) (DU-145): good results |
| CC12CCC3c4ccc(O)cc4CCC3C1CCC2(O)C=Cc1ccccc1CO (stereo not shown) [Compound 20] | 24% | 97% | – | – | – |
| CC12CCC3c4ccc(O)cc4CCC3C1CCC2(O)C=CBr (stereo not drawn) [Compound 22, 17α-Br-vinyl-E2, reference compound] | 59% | 91% | – | – | – |
| CC12CCC3c4ccc(O)cc4CCC3C1CCC2(O)C=Cc1cccc(C(F)(F)F)c1 (stereo not shown) [Compound 23] | 19% | 5% | – | – | overall result in cytotoxicity testing (Table 3) (DU-145): good results |

| Structure (SMILES) | MCF-7 % Cell# (MCF-7; [2]) | DU145 % Cell# (DU-145; [3]) | MCF-7 % Cell# (MCF-7; [4]) | DU145 % Cell# (DU-145; [5]) | other results |
| --- | --- | --- | --- | --- | --- |
| CC12CCC3c4ccc(O)cc4CCC3C1CCC2(O)C=Cc1ccccc1C(=O)O (stereo not shown) [Compound 24] | 61% | 103% | – | – | – |
| CC12CCC3c4ccc(O)cc4CCC3C1CCC2(O)C=Cc1ccc(C(F)(F)F)cc1 (stereo not shown) [Compound 25] | 13% | 5% | – | – | overall result in cytotoxicity testing (Table 3) (DU-145): good results; general toxicity (animal weight, gross analysis of organs) (NCR nude mice): No apparent detrimental effects |
| C[C@]12C[C@H](c3ccc(OCCCCCS(=O)(=O)CCCC(F)(F)C(F)(F)F)cc3)[C@@H]3c4ccc(O)cc4CC[C@H]3[C@@H]1CC[C@@H]2O [Compound 26, RU 58668, reference compound] | – | – | 37% | 73% | – |
| CC/C(=C(\c1ccccc1)c1ccc(OCCN(C)C)cc1)c1ccccc1 [Compound 27, ICI 47, 699, reference compound] | – | – | 21% | 12% | – |
| C[C@]1(O)CC[C@H]2[C@@H]3CCC4=CC(=O)CCC4=C3C=C[C@@]21C [Compound 29, RU 1881, reference compound] | – | – | 94% | 99% | – |
| CC/C(=C(\c1ccccc1)c1ccc(OCCN(C)C)cc1)c1ccccc1.O=C(O)CC(O)(CC(=O)O)C(=O)O [Compound 30, TAM Citr, reference compound] | – | – | 33% | 47% | – |
| CN(C)CCOc1ccc([C@H]2C[C@]3(C)[C@@H](O)CC[C@H]3[C@@H]3CCc4cc(O)ccc4[C@H]32)cc1 [Compound 31, RU 39411, reference compound] | – | – | 102% | 102% | – |
| C[C@]12CC[C@@H]3c4ccc(O)cc4C[C@@H](CCCCCCCCC[S+]([O-])CCCC(F)(F)C(F)(F)F)[C@H]3[C@@H]1CC[C@@H]2O (stereo partly shown) [Compound 32, ICI-182780, reference compound] | – | – | 62% | 94% | – |
| CC/C(=C(\c1ccccc1)c1ccc(OCCN(C)C)cc1)c1ccccc1 [Compound 33, Z-TAM, reference compound] | – | – | 25% | 56% | – |
| COc1ccc2c(c1)CCC(c1ccccc1)=C2c1ccc(OCCN2CCCC2)cc1.Cl [Compound 34, 4-11, 100A, reference compound] | – | – | 32% | 29% | – |
| C#C[C@]1(O)CC[C@H]2[C@@H]3CCC4=Cc5oncc5C[C@]4(C)[C@H]3CC[C@@]21C [Compound 35, Danazol, reference compound] | – | – | 107% | 92% | – |
| C#C[C@]1(O)CC[C@H]2[C@@H]3CCc4cc(O)ccc4[C@H]3[C@H](OC)C[C@@]21C [Compound 37, RU16117, reference compound] | – | – | 103% | 101% | – |
| CC12CCC3c4ccc(O)cc4CCC3C1CCC2(O)C=Cc1ccc([N+](=O)[O-])cc1 (stereo not shown) [Compound 46] | 35% | 44% | – | – | – |
| CC12CCC3c4ccc(O)cc4CCC3C1CCC2(O)C=Cc1ccccc1 (stereo not shown) [Compound 48] | 27% | 47% | – | – | – |
| CC12CCC3c4ccc(O)cc4CCC3C1CCC2(O)C=Cc1ccccc1[N+](=O)[O-] (stereo not shown) [Compound 49] | 29% | 17% | – | – | – |
| C[C@]12CC[C@@H]3c4ccc(O)cc4CC[C@H]3[C@@H]1CC[C@@H]2O [Compound E2, estradiol-17β, reference compound] | 90% | 100% | 90% | 100% | cytotoxic or proliferative effects (DU145): no apparent cytotoxic or proliferative effects; difference in cell number over non-treated cells ([1]; negative control): 0±3.4% |
| Oc1ccc(C=Cc2cc(O)cc(O)c2)cc1 [resveratrol] | – | – | – | – | decrease in cell number ([1]; positive control): 65±5.3% |
